# Measured values published in US20080038386A1, “Use of a liquid cooling sensate to provide a pungent, warming or tingling sensate composition” (priority 2006, published 2008).
# Tests used:
# [1] = Sensory panel: pungency enhancement of a hot chile pepper sauce; format: in vivo
# From the text: For this type evaluation, a panel consisting of both professional flavorists and other individuals with sensory testing experience was employed. In each tasting session two samples were presented to the panelists in a randomized order to avoid presentation order effect. Panelists were asked to rate the samples as same or different. If different, panelists were asked to rate the “pungent, hotness (warming) or tingling” intensity and to describe the flavor profile as compared to a control sample without the eutectic cooling mixture.
# A commercial hot chile pepper sauce derived from Capsicum frutescens var. tabasco (Tabasco® brand) (whose primary pungent principles are the amides capsaicin and dihydrocapsaicin) was diluted to 5% strength in water (the control). […] The control sample was the 5% strength hot chile pepper sauce. […] The degree of hotness (warmth) and pungency profile enhancement was judged to be 25-35%.
# [2] = 30 ppm in sucrose solution; cited from earlier work
smiles,measurement,setting,value
"CCNC(=O)C1CC(C)CCC1C(C)C (stereo not drawn) [WS-3, N-Ethyl-p-menthane-3-carboxamide]",accompanying sensory effect noted by panelists,"[1]; 28 ppm in 5% strength hot chile pepper sauce, especially in the back of the throat",unpleasant irritating-scratchy effect
same,sensory balance accompanying the pungency enhancement,[1]; capsaicin containing products (summary statement),unbalanced scratchy-irritating and distorted sensory impression
"C/C=C/C=C\CC/C=C/C(=O)NCC(C)C [spilanthol, 2E,6Z,8E-decatrienoic acid-N-isobutylamide]",sensory description,[2],tingling & mouth watering
